“And” between values parts separate entries of the source, which are not always exact repeats. Equal entries are not always repeated. Where two headings read alike, the source gives them in different places.
Tests used:
[1] = biological target: EGFR (Homo sapiens, UniProt P00533); test: EGFR-TK inhibitory assay
Description: To record autophosphorylation level, EGFR kinase assay was carried out on the basis of DELFIA/Time-Resolved Fluorometry. […] Each compound (10 μL) was incubated with recombinant enzyme (10 μL, 5 ng for EGFR, 1:80 dilution in 100 mM HEPES) for 10 min at 25 °C, subsequent to the addition of 5X buffer (10 μL, containing 2 mM MnCl2, 100 μM Na3VO4, 20 mM HEPES and 1 mM DTT) and ATP-MgCl2 (20 μL, containing 0.1 mM ATP and 50 mM MgCl2) and incubation for 1h. The negative and positive controls were included in each plate by the incubation of enzyme either with or without ATP-MgCl2. The liquid was removed after incubation and the plates were washed thrice using a wash buffer. The Europium-tagged antiphosphotyrosine antibody (75 μL, 400 ng) was added to each well followed by incubation of 1h and then washing of the plates using buffer. […] The autophosphorylation percentage inhibition by compounds was calculated using the following equation:
The majority of signals detected by antiphosphotyrosine antibody were from EGFR because the enzyme preparation contained low impurities.

[2] = system: MCF-7 (breast) cancer cell line; test: Antiproliferative assay, MCF-7; assay type: cell-based, human; conditions: for IC50: read-out: Antiproliferative activity IC50 ± SEM, MCF-7; for Fold more potent than erlotinib (MCF-7 IC50): MCF-7 IC50 ratio to erlotinib
Description: (§1) Table 1 presents the median inhibitory concentration (IC50) and GI50 (mean IC50) for the four cancer cell lines.
(§2) Refer to Appendix A for additional information.
(§3) To explore the antiproliferative potential of compounds propidium iodide fluorescence assay was performed using different cell lines such as Panc-1 (pancreas cancer cell line) [Panc-1-CTC (RRID:CVCL_VQ69)], MCF-7 (breast cancer cell line) [MCF-7 (RRID:CVCL_0031)], HT-29 (colon cancer cell line) [HT-29 (RRID:CVCL_0320)] and A-549 (epithelial cancer cell line)[A-549 (RRID:CVCL_0023)], respectively. All cell lines were obtained from ATCC (American Type Cell Culture).
(§4) To calculate the total nuclear DNA, a fluorescent dye (propidium iodide, PI) is used which can attach to the DNA, thus offering a quick and precise technique. PI cannot pass through the cell membrane and its signal intensity can be considered as directly proportional to quantity of cellular DNA. Cells whose cell membranes are damaged or have changed permeability are counted as dead ones. The assay was performed by seeding the cells of different cell lines at a density of 3000-7500 cells/well (in 200 μl medium) in culture plates followed by incubation for 24 h at 37 °C in humidified 5% CO2 /95% air atmospheric conditions. The medium was removed; the compounds were added to the plates at 10 μM concentrations (in 0.1% DMSO) in triplicates, followed by incubation for 48 h. DMSO (0.1%) was used as control. After incubation, medium was removed followed by the addition of PI (25 μl, 50 μg/mL in water/medium) to each well of the plates. At -80 °C, the plates were allowed to freeze for 24 h, followed by thawing at 25 °C. A fluorometer (Polar-Star BMG Tech) was used to record the readings at excitation and emission wavelengths of 530 and 620 nm for each well. The percentage cytotoxicity of compounds was calculated using the following formula: […]

[3] = system: Bax; test: Apoptotic markers assay, Bax level in A-549 cells; assay type: cell-based, human; conditions: for Bax level: control 60; for Bax fold change: relative to untreated control
Description: (§5) The Bcl-2 protein family, comprising inducer proteins (Bax) and suppressor proteins (Bcl-2), primarily regulates apoptosis.
(§6) Appendix A gives more details.
Bring all reagents, except the human Bax-α Standard, to room temperature for at least 30 minutes prior to opening. The human Bax-α Standard solution should not be left at room temperature for more than 10 minutes. All standards, controls and samples should be run in duplicate. Refer to the Assay Layout Sheet to determine the number of wells to be used and put any remaining wells with the desiccant back into the pouch and seal the ziploc. Store unused wells at 4 °C. Pipet 100 μL of Assay Buffer into the S0 (0 pg/mL standard) wells. Pipet 100 μL of Standards #1 through #6 into the appropriate wells. Pipet 100 μL of the Samples into the appropriate wells. Tap the plate gently to mix the contents. Seal the plate and incubate at room temperature on a plate shaker for 1 hour at ~500 rpm. Empty the contents of the wells and wash by adding 400 μL of wash solution to every well. Repeat the wash 4 more times for a total of 5 washes. After the final wash, empty or aspirate the wells and firmly tap the plate on a lint free paper towel to remove any remaining wash buffer. Pipet 100 μL of yellow Antibody into each well, except the Blank. Seal the plate and incubate at room temperature on a plate shaker for 1 hour at ~500 rpm. Empty the contents of the wells and wash by adding 400 μL of wash solution to every well. Repeat the wash 4 more times for a total of 5 washes. After the final wash, empty or aspirate the wells and firmly tap the plate on a lint free paper towel to remove any remaining wash buffer. Add 100 μL of blue Conjugate to each well, except the Blank. Seal the plate and incubate at room temperature on a plate shaker for 30 minutes at ~500 rpm. Empty the contents of the wells and wash by adding 400 μL of wash solution to every well. Repeat the wash 4 more times for a total of 5 washes. After the final wash, empty or aspirate the wells and firmly tap the plate on a lint free paper towel to remove any remaining wash buffer. Pipet 100 μL of Substrate Solution into each well. Incubate for 30 minutes at room temperature on a plate shaker at ~500 rpm. Pipet 100 μL Stop Solution to each well. Blank the plate reader against the Blank wells, read the optical density at 450 nm. Calculate the average net Optical Density (OD) bound for each standard and sample by subtracting the average Blank OD from the average OD for each standard and sample. Using linear graph paper, plot the Average Net OD for each standard versus Bax concentration in each standard. Approximate a straight line through the points. The concentration of Bax in the unknowns can be determined by interpolation.

[4] = system: Panc-1 (pancreatic) cancer cell line; test: Antiproliferative assay, Panc-1; assay type: cell-based, human; conditions: read-out: Antiproliferative activity IC50 ± SEM, Panc-1
Description: as §1, §2, §3, §4

[5] = system: p53; test: Apoptotic markers assay, p53 level in A-549 cells; assay type: cell-based, human; conditions: control 65
Source text: as §5
A prime example of a gene product is the p53 protein, which affects apoptosis. The potential for p53 overexpression to induce apoptosis may elucidate the frequent deactivation of p53 enzymes by cancer cells during transformation.
as §6

[6] = system: four cancer cell lines (A-549, MCF-7, Panc-1, HT-29); test: Antiproliferative assay, mean over the four cancer cell lines (GI50); assay type: cell-based, human; conditions: for IC50: mean IC50 of A-549, MCF-7, Panc-1, HT-29
Source text: as §1, §2
All cell lines were obtained from ATCC (American Type Cell Culture). […]

[7] = system: HT-29 (colon) cancer cell line; test: Antiproliferative assay, HT-29; assay type: cell-based, human; conditions: read-out: Antiproliferative activity IC50 ± SEM, HT-29
Description: as §1, §2, §3, §4

[8] = Cell viability assay (MTT) on normal cell line; conditions: human, MCF-10A normal mammary gland epithelial cells
Description: (§7) The viability of the investigated compounds was assessed using the normal human mammary gland epithelial cell line MCF-10A. After four days of incubation on MCF-10A cells with 50 µM of each examined compound, cell viability was assessed using the MTT test[46]^,[47].
(§8) The viability of 7a–o was determined using the normal human mammary gland epithelial (MCF-10A) cell line^46,[47].
(§9) MTT assay was performed to investigate the effect of the synthesized compounds on mammary epithelial cells (MCF-10A). The cells were propagated in medium consisting of Ham's F-12 medium/ Dulbecco's modified Eagle's medium (DMEM) (1:1) supplemented with 10% foetal calf serum (GIBCO, UK), 2 mM glutamine, insulin (10 μg/mL), hydrocortisone (500 ng/mL) and epidermal growth factor (20 ng/mL). Trypsin ethylenediamine tetra acetic acid (EDTA) was used to passage the cells after every 2-3 days. 96-well flat-bottomed cell culture plates were used to seed the cells at a density of 10^4 cells mL^-1. The medium was aspirated from all the wells of culture plates after 24 h followed by the addition of synthesized compounds (in 200 μL medium to yield a final concentration of 0.1% (v/v) dimethyl sulfoxide) into individual wells of the plates. Four wells were designated to a single compound. The plates were allowed to incubate at 37°C for 96 h. Afterwards, the medium was aspirated and 3-[4,5-dimethylthiazol-2-yl]-2,5-diphenyltetrazolium bromide (MTT) (0.4 mg/mL) in medium was added to each well and subsequently incubated for 3 h. The medium was aspirated and 150 μL dimethyl sulfoxide (DMSO) was added to each well. The plates were vortexed followed by the measurement of absorbance at 540 nm on a microplate reader.

[9] = system: Bcl-2; test: Apoptotic markers assay, Bcl-2 level in A-549 cells; assay type: cell-based, human; conditions: for Bcl-2 level: control 5
Description: as §5, §6
Mix all the reagents thoroughly without foaming before use. Wash the microwells twice with approximately 300 μL Wash Buffer per well with thorough aspiration of microwell contents between washes. Take caution not to scratch the surface of the microwells. After the last wash, empty the wells and tap microwell strips on absorbent pad or paper towel to remove excess Wash Buffer. Use the microwell strips immediately after washing or place upside down on a wet absorbent paper for not longer than 15 minutes. […] Add 100 μL of Sample Diluent in duplicate to all standard wells and to the blank wells. Prepare standard (1:2 dilution) in duplicate ranging from 32 ng/mL to 0.5 ng/mL. Add 100 μL of Sample Diluent, in duplicate, to the blank wells. Add 80 μL of Sample Diluent, in duplicate, to the sample wells. Add 20 μL of each Sample, in duplicate, to the designated wells. Add 50 μL of diluted biotin-conjugate to all wells, including the blank wells. Cover with a plate cover and incubate at room temperature, on a microplate shaker at 100 rpm if available, for 2 hours. Remove plate cover and empty the wells. Wash microwell strips 3 times as described in step 2. Add 100 μL of diluted Streptavidin-HRP to all wells, including the blank wells. Cover with a plate cover and incubate at room temperature, on a microplate shaker at 100 rpm if available, for 1 hour. Remove the plate cover and empty the wells. Wash microwell strips 3 times as described in step 2. Proceed to the next step. Pipette 100 μl of mixed TMB Substrate Solution to all wells, including the blanks. Incubate the microwell strips at room temperature (18° to 25°C) for about 15 minutes, if available on a rotator set at 100 rpm. Avoid direct exposure to intense light. The point, at which the substrate reaction is stopped, is often determined by the ELISA reader. Many ELISA readers record absorbance only up to 2.0 O.D. Therefore, the color development within individual microwells must be watched by the person running the assay and the substrate reaction stopped before positive wells are no longer properly detectable. Stop the enzyme reaction by quickly pipetting 100 μL of Stop Solution into each well, including the blank wells. It is important that the Stop Solution is spread quickly and uniformly throughout the microwells to completely inactivate the enzyme. Results must be read immediately after the Stop Solution is added or within one hour if the microwell strips are stored at 2 - 8°C in the dark. Read the absorbance of each microwell on a spectrophotometer using 450 nm as the primary wavelength.

[10] = system: A-549 (lung) cancer cell line; test: Antiproliferative assay, A-549; assay type: cell-based, human; conditions: read-out: Antiproliferative activity IC50 ± SEM, A-549
Description: as §1, §2, §3, §4

[11] = biological target: VEGFR-2 (Homo sapiens, UniProt P35968); test: VEGFR-2 kinase inhibitory assay
Chain of VEGFR-2 (P35968 20-1356): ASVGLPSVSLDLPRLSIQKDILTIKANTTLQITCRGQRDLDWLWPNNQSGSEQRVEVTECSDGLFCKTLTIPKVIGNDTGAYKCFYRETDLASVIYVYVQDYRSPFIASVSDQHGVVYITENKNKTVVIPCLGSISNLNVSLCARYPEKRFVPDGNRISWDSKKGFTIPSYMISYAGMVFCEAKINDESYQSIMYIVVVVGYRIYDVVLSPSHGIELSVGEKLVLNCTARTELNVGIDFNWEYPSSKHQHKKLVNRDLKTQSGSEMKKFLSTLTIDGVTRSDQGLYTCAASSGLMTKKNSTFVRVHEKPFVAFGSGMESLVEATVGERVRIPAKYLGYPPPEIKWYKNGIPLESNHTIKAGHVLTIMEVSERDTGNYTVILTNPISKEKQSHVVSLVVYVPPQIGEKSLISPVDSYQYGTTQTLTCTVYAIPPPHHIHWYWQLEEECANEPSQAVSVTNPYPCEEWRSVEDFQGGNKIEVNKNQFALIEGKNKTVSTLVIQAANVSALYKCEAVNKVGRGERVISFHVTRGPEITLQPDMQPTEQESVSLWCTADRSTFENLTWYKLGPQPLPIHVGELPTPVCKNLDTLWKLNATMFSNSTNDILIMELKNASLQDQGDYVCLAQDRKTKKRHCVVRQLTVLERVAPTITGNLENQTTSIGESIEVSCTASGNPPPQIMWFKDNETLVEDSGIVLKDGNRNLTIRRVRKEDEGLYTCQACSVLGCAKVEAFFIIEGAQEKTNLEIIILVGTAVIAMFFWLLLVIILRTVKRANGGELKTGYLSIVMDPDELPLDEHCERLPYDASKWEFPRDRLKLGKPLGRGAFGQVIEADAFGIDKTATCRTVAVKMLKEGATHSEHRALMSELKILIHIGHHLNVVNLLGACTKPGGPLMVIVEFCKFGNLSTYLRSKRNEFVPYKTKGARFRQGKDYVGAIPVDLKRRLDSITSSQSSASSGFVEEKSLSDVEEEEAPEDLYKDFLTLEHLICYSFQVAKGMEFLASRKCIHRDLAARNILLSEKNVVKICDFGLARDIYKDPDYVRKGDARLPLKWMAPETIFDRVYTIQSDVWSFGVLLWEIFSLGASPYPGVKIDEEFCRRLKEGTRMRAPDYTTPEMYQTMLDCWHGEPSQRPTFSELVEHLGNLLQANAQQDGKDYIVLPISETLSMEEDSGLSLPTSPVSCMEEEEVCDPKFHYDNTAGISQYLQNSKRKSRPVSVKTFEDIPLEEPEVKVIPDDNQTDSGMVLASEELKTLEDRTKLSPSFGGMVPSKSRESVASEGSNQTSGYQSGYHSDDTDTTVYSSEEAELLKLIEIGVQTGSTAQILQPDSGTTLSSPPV
Description: Prepare all the solutions using autoclaved, deionized water and analytical grade reagents. Prepare and store all the reagents at room temperature (unless indicated otherwise). […] The assays used an ULight-labeled peptide substrate and a Europium-W1024-labeled antiphosphotyrosine antibody. The VEGFR-2 was purchased from Carna Biosciences, Inc. (New York, USA). The 384-well plates were obtained from PerkinElmer. […] Negative control: 2.5 μL/well 4×substrate/ATP mixture and 7.5 μL 1×kinase assay buffer in 384-well plate well. […] After incubation at room temperature and dark for 60 min, 5 μL 4×stop solution was added to corresponding wells to react for 5 min and then 5 μL 4×detection mix was added to the corresponding wells of a 384-well plate. The mixture was centrifugally mixed and stayed for 60 min at room temperature for color development. The plate was read using an Envision plate reader. The inhibition rate (%) = (positive well reading-compound well reading)/(positive well reading-negative well reading)×100. The corresponding IC50 values were calculated using GraphPad Prism 5.0.

[12] = biological target: VEGFR-2 kinase; conditions: read-out: VEGFR-2 kinase IC50; cited from earlier work
[13] = system: wild-type EGFR; set-up: method as in PMID 26275028; conditions: cited from earlier work
[14] = system: EGFR^T790M; set-up: method as in PMID 26275028; conditions: cited from earlier work
[15] = system: EGFR^L858R; set-up: method as in PMID 26275028; conditions: cited from earlier work
[16] = system: MCF-10A; conditions: 50 µM
Description: as §7, §8, §9

| Molecule | IC50 ([1]; EGFR inhibition IC50 ± SEM) [nM] | IC50 ([2]; Homo sapiens, MCF7) [nM] | Bax level [3] [pg/mL] | Bax fold change [3] | IC50 ([4]; Homo sapiens, PANC-1) [nM] | p53 level [5] [pg/mL] | IC50 ([6]; Homo sapiens) [nM] | IC50 ([7]; Homo sapiens) [nM] | viability at 96 h, 50 µM [8] [%] | Bcl-2 level [9] [ng/mL] | IC50 ([10]; Homo sapiens, A549) [nM] | IC50 [11] [nM] | further results |
| --- | --- | --- | --- | --- | --- | --- | --- | --- | --- | --- | --- | --- | --- |
| CCS(=O)(=O)c1ccc2[nH]nc(C(=O)N/N=C/c3nc4ccccc4s3)c2c1 [Compound 7j, (E)-N′-(benzo[d]thiazol-2-ylmethylene)-5-(ethylsulfonyl)-1H-indazole-3-carbohydrazide] | 74 ± 4 | 28 ± 1 | 505 ± 3 | 8 fold and 8.5 fold | 26 ± 1 | 340 ± 2 | 27 | 27 ± 1 | 91 | 1.50 ± 0.001 | 26 ± 1 | 27 ± 1 |  |
| CCS(=O)(=O)c1ccc2[nH]nc(C(=O)N/N=C/c3ccc(OC)nc3)c2c1 [Compound 7k, (E)-5-(ethylsulfonyl)-N′-((6-methoxypyridin-3-yl)methylene)-1H-indazole-3-carbohydrazide] | 71 ± 4 | 26 ± 1 | 540 ± 3 | 9 fold | 25 ± 1 | 371 ± 2 | 25 | 24 ± 1 | 93 | 1.20 ± 0.001 | 24 ± 1 | 21 ± 1 | Fold more potent than erlotinib (MCF-7 IC50) [2]: 1.5 fold; Fold more effective than erlotinib (GI50) ([6]; GI50 ratio to erlotinib): 1.3 fold; Bcl-2 fold reduction ([9]; relative to untreated control): 4.2 fold |
| CCS(=O)(=O)c1ccc2[nH]nc(C(=O)N/N=C/c3ccn(C)n3)c2c1 [Compound 7o, (E)-5-(ethylsulfonyl)-N′-((1-methyl-1H-pyrazol-3-yl)methylene)-1H-indazole-3-carbohydrazide] | 76 ± 4 | 32 ± 1 | 480 ± 2 | 8 fold | 29 ± 1 | 285 ± 2 | 30 | 29 ± 1 | 92 | 1.80 ± 0.001 | 29 ± 1 | 31 ± 2 | Fold more potent than erlotinib (MCF-7 IC50) [2]: 1.25 fold |
| CN(c1ccc2cn(C)nc2c1)c1ccnc(Nc2ccc(OC(F)(F)F)cc2)n1 [Compound IX] |  |  |  |  |  |  |  |  |  |  |  |  | IC50 [12]: 12 nM |
| C=CC(=O)Nc1cccc(Oc2nc(Nc3n[nH]c4ccccc34)cc(N3CCN(C)CC3)n2)c1 [Compound VIII] |  |  |  |  |  |  |  |  |  |  |  |  | IC50 [13]: 1700 nM; IC50 [14]: 70 nM; IC50 [15]: 500 nM |
| (E)-5-(ethylsulfonyl)-N′-(3-methoxybenzylidene)-1H-indazole-3-carbohydrazide [Compound 7l] |  |  |  |  |  |  |  |  |  |  |  |  | IC50 ([1]; read-out: EGFR inhibition IC50 ± SEM): 87 ± 5 nM; IC50 ([2]; MCF-7): 43 ± 3 nM; Cell viability % [16]: 91%; IC50 ([4]; Panc-1): 42 ± 4 nM; Fold less potent than 7k (GI50) ([6]; GI50 ratio to 7k): 1.7 fold; IC50 [6]: 42 nM; IC50 [7]: 42 ± 4 nM; IC50 ([10]; A-549): 41 ± 3 nM; IC50 ([11]; read-out: VEGFR-2 inhibition IC50 ± SEM, kinase assay): 45 ± 3 nM |
